Like-named read-outs stand apart in the source and are kept apart here.

In general, IC50 refers to the point on the concentration scale where inhibition reaches its midpoint.

The target of one assay is human TLR7 (Homo sapiens (Human), UniProt Q9NYK1). In words: TLR7 inhibition reporter assay (HEK-Blue cells, SEAP reporter, gardiquimod stimulation). The assay is classed as cell-based. (In a reporter assay the amount or activity of a reporter protein is the signal.)
In the next assay the target is human TLR8 (Homo sapiens (Human), UniProt Q9NR97). Kind of assay: TLR8 inhibition reporter assay (HEK-Blue cells, SEAP reporter, R848 stimulation).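 Also: compounds tested from 0.05 nM to 50 µM, 22 h at 37 °C, SEAP measured with HEK-Blue Detection, inhibition relative to agonist plus DMSO versus a known inhibitor.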
Chain of human TLR8 (Q9NR97 27-1041): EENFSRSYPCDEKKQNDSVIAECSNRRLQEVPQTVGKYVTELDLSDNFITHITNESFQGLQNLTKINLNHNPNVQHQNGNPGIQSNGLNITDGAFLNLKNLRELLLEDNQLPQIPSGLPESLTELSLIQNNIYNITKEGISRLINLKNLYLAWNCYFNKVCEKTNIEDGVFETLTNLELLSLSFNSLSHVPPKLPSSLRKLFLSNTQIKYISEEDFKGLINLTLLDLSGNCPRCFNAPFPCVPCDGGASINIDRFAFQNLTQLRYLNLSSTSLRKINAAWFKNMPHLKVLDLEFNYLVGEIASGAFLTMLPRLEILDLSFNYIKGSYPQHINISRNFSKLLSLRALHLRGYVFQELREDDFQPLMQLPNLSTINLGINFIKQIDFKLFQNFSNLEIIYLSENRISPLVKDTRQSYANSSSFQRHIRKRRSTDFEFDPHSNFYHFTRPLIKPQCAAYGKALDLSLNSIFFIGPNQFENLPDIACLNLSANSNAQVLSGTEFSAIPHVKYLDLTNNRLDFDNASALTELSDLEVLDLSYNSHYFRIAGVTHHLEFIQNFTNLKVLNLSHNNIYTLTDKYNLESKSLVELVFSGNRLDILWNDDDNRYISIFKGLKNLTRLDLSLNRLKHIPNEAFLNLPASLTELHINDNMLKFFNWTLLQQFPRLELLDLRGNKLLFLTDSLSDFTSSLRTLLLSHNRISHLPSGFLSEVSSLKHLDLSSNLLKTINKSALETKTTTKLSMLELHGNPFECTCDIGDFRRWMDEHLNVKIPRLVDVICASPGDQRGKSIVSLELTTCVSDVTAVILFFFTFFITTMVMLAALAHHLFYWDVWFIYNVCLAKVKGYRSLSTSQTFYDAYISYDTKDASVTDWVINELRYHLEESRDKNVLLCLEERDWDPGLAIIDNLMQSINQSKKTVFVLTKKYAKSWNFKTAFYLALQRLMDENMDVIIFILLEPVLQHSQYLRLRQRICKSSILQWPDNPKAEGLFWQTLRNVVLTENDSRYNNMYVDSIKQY
In a further assay the target is human TLR9 (Homo sapiens (Human), UniProt Q9NR96). Kind of assay: TLR9 inhibition reporter assay (HEK-Blue cells, SEAP reporter, ODN2006 stimulation).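 Also: compounds tested over 0.05 nM to 50 µM, 22 h incubation, inhibition taken as SEAP signal drop from agonist plus DMSO wells toward a known inhibitor control.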
Chain of human TLR9 (Q9NR96 26-1032): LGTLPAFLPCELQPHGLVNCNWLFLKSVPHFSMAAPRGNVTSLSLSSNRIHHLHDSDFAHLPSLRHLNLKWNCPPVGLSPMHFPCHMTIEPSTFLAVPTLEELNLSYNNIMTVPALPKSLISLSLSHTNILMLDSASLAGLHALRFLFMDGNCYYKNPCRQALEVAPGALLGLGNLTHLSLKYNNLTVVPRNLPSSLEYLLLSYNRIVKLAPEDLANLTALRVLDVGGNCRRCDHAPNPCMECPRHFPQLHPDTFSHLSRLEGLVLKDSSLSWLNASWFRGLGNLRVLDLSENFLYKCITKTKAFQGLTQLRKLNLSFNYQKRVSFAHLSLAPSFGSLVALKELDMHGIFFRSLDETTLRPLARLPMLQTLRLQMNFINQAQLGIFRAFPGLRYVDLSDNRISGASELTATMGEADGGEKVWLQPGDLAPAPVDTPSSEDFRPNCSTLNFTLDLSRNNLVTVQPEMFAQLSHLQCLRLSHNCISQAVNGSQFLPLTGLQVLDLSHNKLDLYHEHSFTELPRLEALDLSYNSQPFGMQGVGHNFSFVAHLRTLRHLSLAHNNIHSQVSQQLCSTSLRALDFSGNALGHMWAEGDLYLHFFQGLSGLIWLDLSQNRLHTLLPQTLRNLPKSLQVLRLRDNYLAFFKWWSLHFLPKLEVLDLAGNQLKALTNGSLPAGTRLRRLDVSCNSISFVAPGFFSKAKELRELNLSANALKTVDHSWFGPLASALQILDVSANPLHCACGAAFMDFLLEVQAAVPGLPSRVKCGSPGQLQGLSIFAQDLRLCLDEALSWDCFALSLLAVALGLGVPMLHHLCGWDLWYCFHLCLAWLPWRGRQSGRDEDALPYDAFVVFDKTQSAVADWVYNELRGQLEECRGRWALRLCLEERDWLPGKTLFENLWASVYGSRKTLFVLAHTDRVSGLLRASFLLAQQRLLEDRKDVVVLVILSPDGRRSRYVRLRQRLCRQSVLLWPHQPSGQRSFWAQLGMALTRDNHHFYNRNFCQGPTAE
The mark [1] stands for this setting: HEK-Blue cells overexpressing human TLR7, gardiquimod 7.5 μM.
The mark [2] stands for this setting: read-out: TLR8 IC50, HEK-Blue cells overexpressing human TLR8, R848 15.9 μM.
Setting [3] is: read-out: TLR9 IC50, HEK-Blue cells overexpressing human TLR9, ODN2006 5 nM.
Where [4] appears, read: TLR8 IC50, HEK-Blue cells overexpressing human TLR8, R848 15.9 μM.
Where [5] appears, read: HEK-Blue cells, gardiquimod 7.5 μM.
Setting [6] is: read-out: TLR9 IC50, HEK-Blue cells, ODN2006 5 nM.
The mark [7] stands for this setting: read-out: TLR8 IC50, HEK-Blue cells, R848 15.9 μM.

Chain of human TLR7 (Q9NYK1 27-1049): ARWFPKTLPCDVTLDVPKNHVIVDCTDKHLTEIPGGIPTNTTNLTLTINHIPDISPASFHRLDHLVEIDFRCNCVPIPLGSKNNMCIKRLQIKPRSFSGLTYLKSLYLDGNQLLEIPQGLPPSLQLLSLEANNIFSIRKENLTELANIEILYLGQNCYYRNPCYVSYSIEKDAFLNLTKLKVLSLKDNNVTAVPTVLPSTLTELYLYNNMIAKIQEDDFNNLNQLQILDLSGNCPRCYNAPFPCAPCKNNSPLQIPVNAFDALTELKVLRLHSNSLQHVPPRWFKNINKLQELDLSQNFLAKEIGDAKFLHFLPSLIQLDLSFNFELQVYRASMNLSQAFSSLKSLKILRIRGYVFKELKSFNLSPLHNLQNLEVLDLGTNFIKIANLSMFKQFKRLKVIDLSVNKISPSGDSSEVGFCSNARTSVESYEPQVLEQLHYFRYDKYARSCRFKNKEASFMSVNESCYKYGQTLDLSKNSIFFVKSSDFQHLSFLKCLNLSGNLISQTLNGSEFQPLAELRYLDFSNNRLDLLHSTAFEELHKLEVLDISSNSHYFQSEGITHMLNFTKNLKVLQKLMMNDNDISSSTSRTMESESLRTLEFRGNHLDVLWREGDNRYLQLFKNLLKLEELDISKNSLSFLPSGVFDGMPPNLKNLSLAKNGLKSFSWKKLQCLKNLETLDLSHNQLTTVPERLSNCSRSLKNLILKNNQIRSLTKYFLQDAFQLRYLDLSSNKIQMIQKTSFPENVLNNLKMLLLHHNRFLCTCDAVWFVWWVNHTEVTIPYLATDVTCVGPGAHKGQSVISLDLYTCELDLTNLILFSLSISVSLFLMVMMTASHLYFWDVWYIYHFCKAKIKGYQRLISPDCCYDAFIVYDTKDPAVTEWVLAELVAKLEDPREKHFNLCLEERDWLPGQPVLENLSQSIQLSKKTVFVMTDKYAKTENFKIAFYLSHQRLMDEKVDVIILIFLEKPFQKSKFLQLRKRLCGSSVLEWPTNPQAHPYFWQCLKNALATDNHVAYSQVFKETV

Regarding `Cc1cc(-c2[nH]c3ccc(C4CCN(C(=O)c5cccnc5)CC4)cc3c2C(C)C)cc(C)n1` [Example 113, (4-(2-(2,6-dimethylpyridin-4-yl)-3-isopropyl-1H-indol-5-yl)piperidin-1-yl)(pyridin-3-yl)methanone], the results for the IC50 against human TLR7 (setting [1]) and on human TLR8 (setting [2]) were 5.9 nM and 78.6 nM, respectively.

For the compound `COCCC(=O)N1CCC(c2ccc3[nH]c(-c4cc(C)nc(C)c4)c(C(C)C)c3c2)CC1` [Example 118, 1-(4-(2-(2,6-dimethylpyridin-4-yl)-3-isopropyl-1H-indol-5-yl)piperidin-1-yl)-3-methoxypropan-1-one], the concentration for half-maximal inhibition (IC50) on human TLR8 (setting [2]) was 79.8 nM; on human TLR9 (setting [3]), > 50000 nM.

In the case of `Cc1cc(-c2[nH]c3ccc(C4CCN(C(=O)CC5C(=O)N(C)C(=O)N5C)CC4)cc3c2C(C)C)cc(C)n1` (stereo not shown) [Example 122, 5-(2-(4-(2-(2,6-dimethylpyridin-4-yl)-3-isopropyl-1H-indol-5-yl)piperidin-1-yl)-2-oxoethyl)-1,3-dimethylimidazolidine-2,4-dione], the IC50 on human TLR7 (setting [1]) turned out to be 6.7 nM; on human TLR8 (setting [2]) it was 44.4 nM.

As to `Cc1cc(-c2[nH]c3ccc(C4CCN(C(=O)c5ccc(C)n(C)c5=O)CC4)cc3c2C(C)C)cc(C)n1` [Example 138, 3-(4-(2-(2,6-dimethylpyridin-4-yl)-3-isopropyl-1H-indol-5-yl)piperidine-1-carbonyl)-1,6-dimethylpyridin-2(1H)-one], the 50% inhibitory concentration (IC50) is 7.6 nM against human TLR7 (setting [1]) and 108 nM at human TLR8 (setting [2]).

Consider `Cc1cc(-c2[nH]c3ccc(C4CCN(C(=O)CCn5ccc(C)n5)CC4)cc3c2C(C)C)cc(C)n1` [Example 143, 1-(4-(2-(2,6-dimethylpyridin-4-yl)-3-isopropyl-1H-indol-5-yl)piperidin-1-yl)-3-(3-methyl-1H-pyrazol-1-yl)propan-1-one], for which the IC50 was 172 nM at human TLR8 (setting [2]) and 25000 nM at human TLR9 (setting [3]).

Consider `Cc1cc(-c2[nH]c3ccc(C4CCN(C(=O)C5CCNC5)CC4)cc3c2C(C)C)cc(C)n1` (stereo not shown) [Example 186, (4-(2-(2,6-dimethylpyridin-4-yl)-3-isopropyl-1H-indol-5-yl)piperidin-1-yl)(pyrrolidin-3-yl) methanone], for which the IC50 against human TLR8 (setting [4]) was 22.2 nM; at human TLR9 (TLR9 IC50, HEK-Blue cells overexpressing human TLR9, ODN2006 5 nM), 516 nM.

Consider `Cc1cc(-c2[nH]c3ccc(C4CCN(C(=O)[C@@]5(C)CCCN5)CC4)cc3c2C(C)C)cc(C)n1` [Example 192, (R)-(4-(2-(2,6-dimethylpyridin-4-yl)-3-isopropyl-1H-indol-5-yl)piperidin-1-yl)(2-methylpyrrolidin-2-yl)methanone], for which the IC50 on human TLR8 (setting [2]) worked out at 7.2 nM; on human TLR9 (setting [3]) it was 154 nM.

As to `Cc1cc(-c2[nH]c3ccc(C4CCN(C(=O)C[C@H]5CCCN5)CC4)cc3c2C(C)C)cc(C)n1` [Example 193, (R)-1-(4-(2-(2,6-dimethylpyridin-4-yl)-3-isopropyl-1H-indol-5-yl)piperidin-1-yl)-2-(pyrrolidin-2-yl)ethan-1-one], the IC50 worked out at 14.8 nM at human TLR8 (setting [2]) and 228 nM on human TLR9 (setting [3]).

In the case of `Cc1cc(-c2[nH]c3ccc(C4CCN(C(=O)C(C)C)CC4)cc3c2C(C)C)cc(C)n1` [Example 202, 1-(4-(2-(2,6-dimethylpyridin-4-yl)-3-isopropyl-1H-indol-5-yl)piperidin-1-yl)-2-methylpropan-1-one], the values for the half-inhibitory concentration (IC50) on human TLR8 (setting [2]) and on human TLR9 (setting [3]) were 327 nM and 39900 nM, respectively.

Consider `Cc1cc(-c2[nH]c3ccc(C4CCN(C(=O)C5(C)COC5)CC4)cc3c2C(C)C)cc(C)n1` [Example 207, (4-(2-(2,6-dimethylpyridin-4-yl)-3-isopropyl-1H-indol-5-yl)piperidin-1-yl)(3-methyloxetan-3-yl)methanone], for which the 50% inhibitory concentration (IC50) on human TLR8 (setting [2]) was 90.4 nM; at human TLR9 (setting [3]), 47400 nM.

As for `COCCN(C)C(=O)CN1CCC(c2ccc3[nH]c(-c4cc(C)nc(C)c4)c(C(C)C)c3c2)CC1` [Example 254, 2-(4-(2-(2,6-dimethylpyridin-4-yl)-3-isopropyl-1H-indol-5-yl)piperidin-1-yl)-N-(2-methoxyethyl)-N-methylacetamide], the half-inhibitory concentration (IC50) on human TLR7 (setting [1]) is 9 nM; against human TLR8 (setting [4]), 17.6 nM.

For `COCCC(=O)N1CCC(c2ccc3[nH]c(-c4ccnc(C)c4)c(C(C)C)c3c2)CC1` [Example 571, 1-(4-(3-isopropyl-2-(2-methylpyridin-4-yl)-1H-indol-5-yl)piperidin-1-yl)-3-methoxypropan-1-one], the results for the IC50 against human TLR7 (setting [1]) and at human TLR8 (setting [2]) were 79.3 nM and 102 nM, respectively.

In the case of `Cc1cc(-c2[nH]c3ccc(C4CCN(Cc5ncn(C)n5)CC4)cc3c2C(C)C)c(F)cn1` [Example 724, 2-(5-fluoro-2-methylpyridin-4-yl)-3-isopropyl-5-(1-((1-methyl-1H-1,2,4-triazol-3-yl)methyl)piperidin-4-yl)-1H-indole], the results for the IC50 at human TLR7 (setting [1]) and on human TLR8 (setting [2]) were 13.8 nM and 9.6 nM, respectively.

For the compound `Cc1nccc(-c2[nH]c3ccc(C4CCN(Cc5cnc[nH]5)CC4)cc3c2C(C)C)c1N` [Example 745, 4-(5-(1-((1H-imidazol-5-yl)methyl)piperidin-4-yl)-3-isopropyl-1H-indol-2-yl)-2-methylpyridin-3-amine], the IC50 is 99.9 nM at human TLR7 (setting [1]) and 130 nM against human TLR8 (setting [4]).

As to `CNCCN1CCC(c2ccc3[nH]c(-c4ccnc(OC)c4)c(C(C)C)c3c2)CC1` [Example 783, 2-(4-(3-isopropyl-2-(2-methoxypyridin-4-yl)-1H-indol-5-yl)piperidin-1-yl)-N-methylethan-1-amine], the IC50 was found to be 55.1 nM against human TLR7 (setting [1]) and 1010 nM at human TLR9 (setting [3]).

For the compound `CNCCN1CCC(c2ccc3[nH]c(-c4ccnc(OC)c4)c(CC4CC4)c3c2)CC1` [Example 784, 2-(4-(3-(cyclopropylmethyl)-2-(2-methoxypyridin-4-yl)-1H-indol-5-yl)piperidin-1-yl)-N-methylethan-1-amine], the IC50 came out at 94 nM against human TLR7 (setting [1]) and 685 nM at human TLR9 (setting [3]).

With `CCc1c(-c2ccnc(OC)c2)[nH]c2ccc(C3CCN(C4CCNCC4)CC3)cc12` [Example 787, 5-([1,4′-bipiperidin]-4-yl)-3-ethyl-2-(2-methoxypyridin-4-yl)-1H-indole], the IC50 at human TLR7 (setting [1]) is 459 nM; at human TLR9 (setting [3]) it was 480 nM.

In the case of `CCc1c(-c2ccnc(OC)c2)[nH]c2ccc(C3CCN(C4CCN(C5CC5)CC4)CC3)cc12` [Example 788, 5-(1′-cyclopropyl-[1,4′-bipiperidin]-4-yl)-3-ethyl-2-(2-methoxypyridin-4-yl)-1H-indole], the IC50 on human TLR7 (setting [1]) is 356 nM; on human TLR9 (setting [3]) it was 611 nM.

Regarding `CCc1c(-c2ccncc2)[nH]c2ccc(C3CCN(Cc4cccn4C)CC3)cc12` [Example 805, 3-ethyl-5-(1-((1-methyl-1H-pyrrol-2-yl)methyl)piperidin-4-yl)-2-(pyridin-4-yl)-1H-indole], the values for the IC50 against human TLR7 (setting [1]) and at human TLR9 (setting [3]) were 610 nM and 1210 nM, respectively.

Turning to `CCc1c(-c2ccncc2)[nH]c2ccc(C3CCN(C4CCN(C)CC4)CC3)cc12` [Example 806, 3-ethyl-5-(1′-methyl-[1,4′-bipiperidin]-4-yl)-2-(pyridin-4-yl)-1H-indole], the half-maximal inhibitory concentration (IC50) at human TLR7 (setting [1]) came out at 1210 nM; at human TLR9 (setting [3]) it was 365 nM.

`CCc1c(-c2ccncc2)[nH]c2ccc(C3CCN(CCNC)CC3)cc12` [Example 808, 2-(4-(3-ethyl-2-(pyridin-4-yl)-1H-indol-5-yl)piperidin-1-yl)-N-methylethan-1-amine]: the concentration for half-maximal inhibition (IC50) at human TLR7 (setting [5]) is 679 nM; at human TLR9 (setting [6]), 610 nM.

For the compound `CCc1c(-c2ccncc2)[nH]c2ccc(C3CCN(C4CCN(CC)CC4)CC3)cc12` [Example 809, 3-ethyl-5-(1′-ethyl-[1,4′-bipiperidin]-4-yl)-2-(pyridin-4-yl)-1H-indole], the IC50 on human TLR7 (setting [5]) came out at 884 nM; on human TLR9 (setting [6]) it was 306 nM.

For `Cc1cc(-c2[nH]c3cc(F)c(C4CCN(C5COC5)CC4)cc3c2C(C)C)cc(C)n1` [Example 834, 2-(2,6-dimethylpyridin-4-yl)-6-fluoro-3-isopropyl-5-(1-(oxetan-3-yl)piperidin-4-yl)-1H-indole], the 50% inhibitory concentration (IC50) was 4.4 nM at human TLR7 (setting [5]) and 23.8 nM on human TLR8 (setting [7]).

For the compound `COc1cc(-c2[nH]c3ccc(C4CCN(C5CCN(C)CC5)CC4)cc3c2C)ccn1` [Example 838, 2-(2-methoxypyridin-4-yl)-3-methyl-5-(1′-methyl-[1,4′-bipiperidin]-4-yl)-1H-indole], the IC50 worked out at 581 nM on human TLR7 (setting [5]) and 613 nM on human TLR9 (setting [6]).

As to `CCN1CCC(N2CCC(c3ccc4[nH]c(-c5ccnc(OC)c5)c(C)c4c3)CC2)CC1` [Example 839, 5-(1′-ethyl-[1,4′-bipiperidin]-4-yl)-2-(2-methoxypyridin-4-yl)-3-methyl-1H-indole], the figures for the IC50 against human TLR7 (setting [5]) and on human TLR9 (setting [6]) were 689 nM and 4440 nM, respectively.

With `COc1cc(-c2[nH]c3ccc(C4CCN(C5CCN(C(C)C)CC5)CC4)cc3c2C)ccn1` [Example 840, 5-(1′-isopropyl-[1,4′-bipiperidin]-4-yl)-2-(2-methoxypyridin-4-yl)-3-methyl-1H-indole], the IC50 on human TLR7 (setting [5]) turned out to be 466 nM; on human TLR9 (setting [6]), 379 nM.

Turning to `CCN1CCC(N2CCC(c3ccc4[nH]c(-c5ccncc5)c(C)c4c3)CC2)CC1` [Example 841, 5-(1′-ethyl-[1,4′-bipiperidin]-4-yl)-3-methyl-2-(pyridin-4-yl)-1H-indole], the figures for the IC50 against human TLR7 (setting [5]) and at human TLR9 (setting [6]) were 492 nM and 87 nM, respectively.

Consider `Cc1c(-c2ccncc2)[nH]c2ccc(C3CCN(C4CCN(C)CC4)CC3)cc12` [Example 842, 3-methyl-5-(1′-methyl-[1,4′-bipiperidin]-4-yl)-2-(pyridin-4-yl)-1H-indole], for which the IC50 at human TLR7 (setting [5]) was 388 nM; at human TLR9 (setting [6]), 93 nM.

`Cc1cc(-c2[nH]c3ccc(C4CCN(c5cccnc5)CC4)cc3c2C(C)C)ccn1` [Example 847, 3-isopropyl-2-(2-methylpyridin-4-yl)-5-(1-(pyridin-3-yl)piperidin-4-yl)-1H-indole]: the 50% inhibitory concentration (IC50) on human TLR7 (setting [5]) was determined as 61.9 nM; at human TLR8 (setting [7]) it was 206 nM.
